Assay results: PMC7206119, “RIP1 inhibition blocks inflammatory diseases but not tumor growth or metastases” (Cell Death and Differentiation, 2019)

How the values were obtained:
Experiment in all cases: biochemical
Parameters in all cases: DiscoverX kinase panel, active-site competition binding (KINOMEscan type), percent of control at one concentration
Details in all cases: competition binding, percent of control
[1] = target: T1, CDC2L1 (Homo sapiens, UniProt P21127)
T1 construct: gene CDK11B

[2] = target: CHEK2 (Homo sapiens, UniProt O96017)
Sequence of CHEK2 (O96017 whole entry): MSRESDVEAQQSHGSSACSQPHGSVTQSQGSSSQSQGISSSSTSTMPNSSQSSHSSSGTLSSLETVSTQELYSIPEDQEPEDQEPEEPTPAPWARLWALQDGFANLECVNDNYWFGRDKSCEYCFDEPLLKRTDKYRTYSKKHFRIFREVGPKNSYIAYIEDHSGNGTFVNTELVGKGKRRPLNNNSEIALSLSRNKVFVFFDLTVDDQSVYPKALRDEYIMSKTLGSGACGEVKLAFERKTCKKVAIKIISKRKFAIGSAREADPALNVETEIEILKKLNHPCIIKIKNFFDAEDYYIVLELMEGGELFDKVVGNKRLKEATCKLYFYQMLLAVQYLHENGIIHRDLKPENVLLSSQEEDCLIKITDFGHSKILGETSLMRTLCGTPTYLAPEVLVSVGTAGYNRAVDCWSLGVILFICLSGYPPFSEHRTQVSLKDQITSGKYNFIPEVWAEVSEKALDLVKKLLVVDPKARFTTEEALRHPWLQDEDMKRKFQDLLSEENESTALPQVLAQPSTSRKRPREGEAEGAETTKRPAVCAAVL

[3] = target: CSNK1A1 (Homo sapiens, UniProt P48729)
Sequence of CSNK1A1 (P48729 whole entry): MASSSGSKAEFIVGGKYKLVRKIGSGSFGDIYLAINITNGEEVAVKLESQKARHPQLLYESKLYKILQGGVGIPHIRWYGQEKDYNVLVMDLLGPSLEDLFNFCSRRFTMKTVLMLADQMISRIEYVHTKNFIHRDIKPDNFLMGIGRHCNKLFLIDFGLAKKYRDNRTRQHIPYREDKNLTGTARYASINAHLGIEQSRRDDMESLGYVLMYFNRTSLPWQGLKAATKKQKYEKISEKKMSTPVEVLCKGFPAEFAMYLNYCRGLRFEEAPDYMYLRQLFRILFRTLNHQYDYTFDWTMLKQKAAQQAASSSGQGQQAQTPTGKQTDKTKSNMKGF

[4] = target: T2, DCAMKL1 (Homo sapiens, UniProt O15075)
T2 construct: gene DCLK1

[5] = target: EGFR (Homo sapiens, UniProt P00533)
[6] = target: FGFR2 (Homo sapiens, UniProt P21802)
[7] = target: HASPIN (Homo sapiens, UniProt Q8TF76)
Sequence of HASPIN (Q8TF76 whole entry): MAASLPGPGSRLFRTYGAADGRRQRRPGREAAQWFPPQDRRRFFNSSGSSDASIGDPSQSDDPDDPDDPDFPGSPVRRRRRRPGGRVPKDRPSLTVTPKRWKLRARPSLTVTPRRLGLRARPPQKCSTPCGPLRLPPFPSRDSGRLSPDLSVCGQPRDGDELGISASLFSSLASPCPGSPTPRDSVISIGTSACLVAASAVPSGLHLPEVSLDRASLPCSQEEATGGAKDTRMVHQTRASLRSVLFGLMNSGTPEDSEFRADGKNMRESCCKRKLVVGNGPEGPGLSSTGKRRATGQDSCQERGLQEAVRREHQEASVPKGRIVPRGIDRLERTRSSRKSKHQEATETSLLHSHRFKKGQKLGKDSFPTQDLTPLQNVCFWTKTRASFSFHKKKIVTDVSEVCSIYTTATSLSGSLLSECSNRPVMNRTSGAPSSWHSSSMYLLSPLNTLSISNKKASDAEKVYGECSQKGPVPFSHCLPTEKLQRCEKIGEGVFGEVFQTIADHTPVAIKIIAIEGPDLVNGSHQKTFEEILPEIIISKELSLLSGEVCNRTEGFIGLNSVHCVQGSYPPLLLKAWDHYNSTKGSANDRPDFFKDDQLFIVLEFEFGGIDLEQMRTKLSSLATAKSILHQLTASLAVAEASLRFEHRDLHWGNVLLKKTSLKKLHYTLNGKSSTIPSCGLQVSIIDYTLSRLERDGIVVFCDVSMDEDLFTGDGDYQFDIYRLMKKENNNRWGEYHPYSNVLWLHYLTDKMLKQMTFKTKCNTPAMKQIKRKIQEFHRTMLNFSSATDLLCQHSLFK

[8] = target: LATS1 (Homo sapiens, UniProt O95835)
[9] = target: LATS2 (Homo sapiens, UniProt Q9NRM7)
[10] = target: LIMK1 (Homo sapiens, UniProt P53667)
[11] = target: T3, MEK5 (Homo sapiens, UniProt Q13163)
T3 construct: gene MAP2K5

[12] = target: MKNK2 (Homo sapiens, UniProt Q9HBH9)
Sequence of MKNK2 (Q9HBH9 whole entry): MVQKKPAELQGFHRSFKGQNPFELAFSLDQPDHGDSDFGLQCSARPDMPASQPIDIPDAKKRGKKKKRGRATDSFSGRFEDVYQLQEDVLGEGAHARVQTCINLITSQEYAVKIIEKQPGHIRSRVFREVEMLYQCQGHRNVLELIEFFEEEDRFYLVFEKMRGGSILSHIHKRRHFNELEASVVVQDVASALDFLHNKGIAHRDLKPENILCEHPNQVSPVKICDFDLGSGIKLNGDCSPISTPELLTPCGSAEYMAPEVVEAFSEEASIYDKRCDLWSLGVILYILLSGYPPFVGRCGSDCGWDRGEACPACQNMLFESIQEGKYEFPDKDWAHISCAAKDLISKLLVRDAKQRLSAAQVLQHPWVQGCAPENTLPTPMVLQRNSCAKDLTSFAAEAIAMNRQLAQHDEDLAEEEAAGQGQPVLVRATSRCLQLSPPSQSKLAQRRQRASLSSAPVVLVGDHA

[13] = target: PIK3CA(H1047Y) (Homo sapiens, UniProt P42336, H1047Y)
[14] = target: PIM3 (Homo sapiens, UniProt Q86V86)
[15] = target: PKMYT1 (Homo sapiens, UniProt Q99640)
Sequence of PKMYT1 (Q99640 whole entry): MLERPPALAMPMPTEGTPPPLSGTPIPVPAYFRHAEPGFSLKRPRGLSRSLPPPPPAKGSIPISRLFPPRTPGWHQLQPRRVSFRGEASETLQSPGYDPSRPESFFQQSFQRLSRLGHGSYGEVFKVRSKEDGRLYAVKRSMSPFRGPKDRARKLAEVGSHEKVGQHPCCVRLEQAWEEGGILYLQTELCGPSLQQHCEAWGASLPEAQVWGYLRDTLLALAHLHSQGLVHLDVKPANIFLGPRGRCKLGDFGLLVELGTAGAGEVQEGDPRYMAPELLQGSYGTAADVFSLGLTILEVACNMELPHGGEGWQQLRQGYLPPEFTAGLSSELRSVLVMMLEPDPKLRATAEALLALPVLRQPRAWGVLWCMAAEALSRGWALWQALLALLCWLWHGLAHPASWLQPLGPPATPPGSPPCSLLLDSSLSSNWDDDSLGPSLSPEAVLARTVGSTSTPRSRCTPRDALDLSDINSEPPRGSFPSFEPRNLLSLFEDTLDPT

[16] = target: PKN1 (Homo sapiens, UniProt Q16512)
[17] = target: T4, RSK2(Kin.Dom.2-C-terminal) (Homo sapiens, UniProt P51812)
T4 construct: gene RPS6KA3; Kin.Dom.2-C-terminal

[18] = target: T5, S6K1 (Homo sapiens, UniProt P23443)
T5 construct: gene RPS6KB1
T5 sequence (P23443 whole entry): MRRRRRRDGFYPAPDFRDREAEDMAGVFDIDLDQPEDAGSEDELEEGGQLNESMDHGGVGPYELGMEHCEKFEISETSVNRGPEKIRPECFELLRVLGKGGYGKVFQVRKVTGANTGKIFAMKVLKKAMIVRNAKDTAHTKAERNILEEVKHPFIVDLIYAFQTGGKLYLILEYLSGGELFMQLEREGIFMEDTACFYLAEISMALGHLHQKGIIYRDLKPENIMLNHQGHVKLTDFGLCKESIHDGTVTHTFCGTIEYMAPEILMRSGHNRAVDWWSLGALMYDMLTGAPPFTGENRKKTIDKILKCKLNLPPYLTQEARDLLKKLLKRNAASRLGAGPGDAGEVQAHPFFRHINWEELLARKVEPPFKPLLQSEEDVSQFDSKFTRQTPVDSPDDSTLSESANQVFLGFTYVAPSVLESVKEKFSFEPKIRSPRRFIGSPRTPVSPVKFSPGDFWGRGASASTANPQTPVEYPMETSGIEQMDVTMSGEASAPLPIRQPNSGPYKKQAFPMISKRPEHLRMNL

[19] = target: SBK1 (Homo sapiens, UniProt Q52WX2)
Sequence of SBK1 (Q52WX2 whole entry): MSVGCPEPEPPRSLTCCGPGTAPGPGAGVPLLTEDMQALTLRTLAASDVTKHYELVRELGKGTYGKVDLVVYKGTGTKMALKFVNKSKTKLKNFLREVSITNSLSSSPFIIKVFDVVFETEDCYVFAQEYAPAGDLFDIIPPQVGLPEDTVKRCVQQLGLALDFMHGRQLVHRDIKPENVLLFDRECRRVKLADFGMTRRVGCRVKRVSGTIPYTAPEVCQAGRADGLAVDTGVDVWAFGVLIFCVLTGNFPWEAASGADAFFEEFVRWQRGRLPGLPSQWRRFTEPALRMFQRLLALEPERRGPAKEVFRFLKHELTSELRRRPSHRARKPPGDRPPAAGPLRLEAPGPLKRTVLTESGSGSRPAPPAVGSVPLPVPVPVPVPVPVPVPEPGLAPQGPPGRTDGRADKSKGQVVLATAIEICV

[20] = target: SNRK (Homo sapiens, UniProt Q9NRH2)
[21] = target: T6, VEGFR2 (Homo sapiens, UniProt P35968)
T6 construct: gene KDR
T6 sequence (P35968 whole entry): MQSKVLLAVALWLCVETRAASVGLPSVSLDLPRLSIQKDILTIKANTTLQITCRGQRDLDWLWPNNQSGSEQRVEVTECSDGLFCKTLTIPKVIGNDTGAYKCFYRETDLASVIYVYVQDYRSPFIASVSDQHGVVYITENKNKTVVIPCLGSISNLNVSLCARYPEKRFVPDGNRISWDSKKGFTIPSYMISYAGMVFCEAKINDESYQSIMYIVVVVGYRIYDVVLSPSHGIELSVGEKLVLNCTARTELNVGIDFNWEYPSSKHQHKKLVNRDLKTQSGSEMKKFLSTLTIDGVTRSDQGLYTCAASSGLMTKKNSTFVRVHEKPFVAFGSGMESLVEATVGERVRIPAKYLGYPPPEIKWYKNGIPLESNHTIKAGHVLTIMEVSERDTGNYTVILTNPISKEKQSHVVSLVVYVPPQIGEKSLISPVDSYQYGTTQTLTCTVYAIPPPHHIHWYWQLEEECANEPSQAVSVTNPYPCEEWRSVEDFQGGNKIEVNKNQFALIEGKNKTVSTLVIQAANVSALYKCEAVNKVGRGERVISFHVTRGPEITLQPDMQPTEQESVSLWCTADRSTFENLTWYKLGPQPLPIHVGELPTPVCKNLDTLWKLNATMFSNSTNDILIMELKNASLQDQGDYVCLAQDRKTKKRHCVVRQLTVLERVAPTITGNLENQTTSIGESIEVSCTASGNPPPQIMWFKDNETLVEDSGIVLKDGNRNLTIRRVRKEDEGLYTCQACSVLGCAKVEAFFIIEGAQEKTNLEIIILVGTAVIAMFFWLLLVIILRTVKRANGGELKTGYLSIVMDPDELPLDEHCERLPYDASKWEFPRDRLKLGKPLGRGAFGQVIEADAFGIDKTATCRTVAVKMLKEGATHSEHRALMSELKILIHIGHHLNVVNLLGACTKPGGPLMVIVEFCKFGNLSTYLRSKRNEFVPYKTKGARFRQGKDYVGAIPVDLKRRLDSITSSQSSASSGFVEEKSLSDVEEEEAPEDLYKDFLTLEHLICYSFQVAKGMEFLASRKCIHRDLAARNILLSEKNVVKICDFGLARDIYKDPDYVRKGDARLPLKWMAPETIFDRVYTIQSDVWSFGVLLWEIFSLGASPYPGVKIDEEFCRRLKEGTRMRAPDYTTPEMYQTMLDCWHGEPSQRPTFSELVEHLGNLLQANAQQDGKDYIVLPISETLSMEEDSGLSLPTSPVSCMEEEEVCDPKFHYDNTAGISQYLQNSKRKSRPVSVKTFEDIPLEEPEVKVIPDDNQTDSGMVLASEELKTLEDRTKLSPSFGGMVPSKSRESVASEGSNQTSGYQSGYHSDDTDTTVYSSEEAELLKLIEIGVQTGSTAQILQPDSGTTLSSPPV

SMILES: COc1cc2c(cn1)N(C)C(=O)[C@@H](NC(=O)c1nc3n(n1)[C@H](c1ccccc1)CC3)CC2 [GNE684, (S)-N-((S)-7-methoxy-1-methyl-2-oxo-2,3,4,5-tetrahydro-1H-pyrido[3,4-b]azepin-3-yl)-5-phenyl-6,7-dihydro-5H-pyrrolo[1,2-b][1,2,4]triazole-2-carboxamide]
- remaining binding at 10 µM [1]: 100%
- remaining binding at 10 µM [2]: 100%
- remaining binding at 10 µM [3]: 87%
- remaining binding at 10 µM [4]: 67%
- remaining binding at 10 µM [5]: 100%
- remaining binding at 10 µM [6]: 99%
- remaining binding at 10 µM [7]: 100%
- remaining binding at 10 µM [8]: 89%
- remaining binding at 10 µM [9]: 84%
- remaining binding at 10 µM [10]: 96%
- remaining binding at 10 µM [11]: 80%
- remaining binding at 10 µM [12]: 96%
- remaining binding at 10 µM [13]: 93%
- remaining binding at 10 µM [14]: 100%
- remaining binding at 10 µM [15]: 99%
- remaining binding at 10 µM [16]: 94%
- remaining binding at 10 µM [17]: 85%
- remaining binding at 10 µM [18]: 88%
- remaining binding at 10 µM [19]: 100%
- remaining binding at 10 µM [20]: 93%
- remaining binding at 10 µM [21]: 93%
